From ChEMBL document CHEMBL3526040, “Immune-mediated agranulocytosis caused by the cocaine adulterant levamisole: a case for reactive metabolite(s) involvement” (Drug Metab Dispos, 2012) come the findings set out here.

Data set [1] can be described thus: Drug excretion in human urine treated with [3H]-levamisole at 150 mg, po. It counts as ADME, tissue-based. Conditions: in vivo.
A short description of data set [2]: Tmax in female human at 150 mg, po. Conditions: in vivo.
Data set [3] can be described thus: Elimination half life in human at 150 mg, po. Conditions: in vivo.
A short description of data set [4]: Oral bioavailability in human at 150 mg. Conditions: in vivo.
Data set [5] in a line: in vivo. Conditions: dog, iv, 10 mg/kg.
Description: Elimination half life in dog at 10 mg/kg, iv
Data set [6] is described as follows: Renal clearance in human at 150 mg, po. Conditions: in vivo.
Data set [7] in a line: Elimination half life in male human at 150 mg, po. Conditions: in vivo.
A short description of data set [8]: in vivo. Conditions: dog, po, 10 mg/kg.
Description: Cmax in fed dog at 10 mg/kg, po
A short description of data set [9]: Elimination half life in female human at 150 mg, po. Conditions: in vivo.
Data set [10] can be described thus: Tmax in male human at 150 mg, po. Conditions: in vivo.
Data set [11] is described as follows: in vivo. Conditions: dog, po, 10 mg/kg. The source holds these as a separate data set.
Description: Elimination half life in fed dog at 10 mg/kg, po
The nature of data set [12]: Renal excretion in human at 150 mg, po. Conditions: urine.
Data set [13] in a line: AUC in female human at 150 mg, po. Conditions: plasma.
Data set [14] in a line: Cmax in female human at 150 mg, po. Conditions: in vivo.
Data set [15] can be described thus: in vivo. Conditions: dog, po, 10 mg/kg. The source holds these as a separate data set.
Description: Elimination half life in fasted dog at 10 mg/kg, po
Data set [16] is described as follows: Plasma clearance in male human at 150 mg, po.
A short description of data set [17]: in vivo. Conditions: dog, po, 10 mg/kg. The source holds these as a separate data set.
Description: Oral bioavailability in fasted dog at 10 mg/kg
Data set [18] in a line: Cmax in human at 150 mg, po. Conditions: in vivo.
Data set [19] is described as follows: in vivo. Conditions: dog, plasma, po, 10 mg/kg.
Description: AUC in fasted dog at 10 mg/kg, po
Data set [20] is described as follows: in vivo. Conditions: dog, plasma, iv, 10 mg/kg.
Description: Plasma clearance in dog at 10 mg/kg, iv
Data set [21] can be described thus: Renal clearance in female human at 150 mg, po. Conditions: in vivo.
Data set [22] is described as follows: AUC in human at 150 mg, po. Conditions: plasma.
Data set [23] can be described thus: Plasma clearance in human at 150 mg, po.
Data set [24] in a line: in vivo. Conditions: dog, plasma, po, 10 mg/kg. The source holds these as a separate data set.
Description: AUC in fed dog at 10 mg/kg, po
Data set [25] in a line: Volume of distribution at steady state in dog at 10 mg/kg, iv. Conditions: in vivo.
Data set [26] is described as follows: AUC in male human at 150 mg, po. Conditions: plasma.
Data set [27] can be described thus: Oral bioavailability in male human at 150 mg. Conditions: in vivo.
The nature of data set [28]: in vivo. Conditions: dog, po, 10 mg/kg. This is another data set of the same source.
Description: Oral bioavailability in fed dog at 10 mg/kg
A short description of data set [29]: in vivo. Conditions: dog, po, 10 mg/kg. The source holds these as a separate data set.
Description: Cmax in fasted dog at 10 mg/kg, po
Data set [30] is described as follows: Plasma clearance in female human at 150 mg, po.
Data set [31] in a line: Oral bioavailability in female human at 150 mg. Conditions: in vivo.
The nature of data set [32]: in vivo. Conditions: dog, po, 10 mg/kg. The source holds these as a separate data set.
Description: Tmax in fasted dog at 10 mg/kg, po
Data set [33] in a line: Cmax in male human at 150 mg, po. Conditions: in vivo.
A short description of data set [34]: Renal clearance in male human at 150 mg, po. Conditions: in vivo.
The nature of data set [35]: in vivo. Conditions: dog, plasma, iv, 10 mg/kg. This is another data set of the same source.
Description: AUC in dog at 10 mg/kg, iv
The nature of data set [36]: Half life in blood (unknown origin).
Data set [37] is described as follows: Tmax in human at 150 mg, po. Conditions: in vivo.
Data set [38] is described as follows: in vivo. Conditions: dog, po, 10 mg/kg. The source holds these as a separate data set.
Description: Tmax in fed dog at 10 mg/kg, po

In data set [1], `O=C(O)[C@H]1O[C@@H](Oc2ccc([C@H]3CN4CCSC4=N3)cc2)[C@H](O)[C@@H](O)[C@@H]1O` yielded a Drug excretion of 25%.

In data set [1], `Oc1ccc([C@H]2CN3CCSC3=N2)cc1` had a Drug excretion of 25%.

The term Tmax denotes the time from dosing to the highest level. One may read the half-life as how long it takes for the measured level to halve. Read a high half-life as slow decline. As a reminder, the bioavailability is dose-corrected exposure relative to a reference, in per cent. A higher bioavailability goes with much systemic uptake. One may read the Cmax as the maximum level reached in the sampled fluid or tissue. One may read the AUC as the area under the concentration-time curve, a measure of exposure. Lower therefore signals less exposure. The CL/F is the apparent clearance, not corrected for the fraction that reaches the circulation. As usually defined, the clearance is a measure of how efficiently the substance is removed, as volume per time. Read a low clearance as inefficient removal. As a reminder, the Vd is a proportionality between amount in the body and measured concentration, not a real space. Low values mean little distribution into tissue, high ones wide distribution into tissue. For the compound `c1ccc([C@H]2CN3CCSC3=N2)cc1` [LEVAMISOLE], the Tmax in [2] is 1.1 h; in data set [10], 1.7 h; in data set [32] it was 1.8 h; in data set [37], 1.5 h; in data set [38] it was 4.5 h. Besides, the half-life in data set [3] was 5.6 h; in [5] it was 1.8 h; in data set [7], 5.4 h; in data set [9] it was 5.9 h; in data set [11], 1.6 h; in data set [15], 1.3 h. In [36], this compound came in with a half-life of less than 6 h. In addition, the bioavailability in data set [4] came to 62.5%; in data set [17], 64%; in data set [27], 61.5%; in data set [28] it was 44%; in [31], 64.7%. The results for the CL renal in [6], in data set [21] and in data set [34] were 29.2 mL/min, 25 mL/min and 31 mL/min, respectively. Also, the Cmax amounted to 1980 ng/mL in data set [8]; 820 ng/mL in [14]; 717 ng/mL in data set [18]; 3330 ng/mL in data set [29]; 672 ng/mL in data set [33]. For the same compound, the dose excreted in [12] stood at 3%. The area under the curve (AUC) in data set [13] came to 3070 ng·h/mL; in data set [19] it was 12200 ng·h/mL; in [22], 3070 ng·h/mL; in [24], 8940 ng·h/mL; in data set [26] it was 3070 ng·h/mL; in [35] it was 18100 ng·h/mL. Further, the CL/F in data set [16] was determined as 8.25 mL/min/kg; in data set [23] it was 8.04 mL/min/kg; in [30] it was 7.56 mL/min/kg. Moreover, the clearance in data set [20] came out at 8.92 mL/min/kg. In data set [25], this compound came in with a volume of distribution (Vd) of 1.42 L/kg.
